# pIC50: −log10 of the molar value.
# Assays:
# [1] = biological target: Diacylglycerol kinase alpha (Homo sapiens, UniProt P23743); assay: In Vitro DGK Inhibition Assay
# Protocol: (§1) The DGKα and DGKζ reactions were performed using either extruded liposome (DGKα and DGKζ LIPGLO assays). […] Luminescence was recorded using an EnVision microplate reader.
# [2] = biological target: Diacylglycerol kinase zeta (Homo sapiens, UniProt Q13574); assay: In Vitro DGK Inhibition Assay
# Protocol: as §1
# Sequence of Diacylglycerol kinase zeta (Q13574 as listed by the source): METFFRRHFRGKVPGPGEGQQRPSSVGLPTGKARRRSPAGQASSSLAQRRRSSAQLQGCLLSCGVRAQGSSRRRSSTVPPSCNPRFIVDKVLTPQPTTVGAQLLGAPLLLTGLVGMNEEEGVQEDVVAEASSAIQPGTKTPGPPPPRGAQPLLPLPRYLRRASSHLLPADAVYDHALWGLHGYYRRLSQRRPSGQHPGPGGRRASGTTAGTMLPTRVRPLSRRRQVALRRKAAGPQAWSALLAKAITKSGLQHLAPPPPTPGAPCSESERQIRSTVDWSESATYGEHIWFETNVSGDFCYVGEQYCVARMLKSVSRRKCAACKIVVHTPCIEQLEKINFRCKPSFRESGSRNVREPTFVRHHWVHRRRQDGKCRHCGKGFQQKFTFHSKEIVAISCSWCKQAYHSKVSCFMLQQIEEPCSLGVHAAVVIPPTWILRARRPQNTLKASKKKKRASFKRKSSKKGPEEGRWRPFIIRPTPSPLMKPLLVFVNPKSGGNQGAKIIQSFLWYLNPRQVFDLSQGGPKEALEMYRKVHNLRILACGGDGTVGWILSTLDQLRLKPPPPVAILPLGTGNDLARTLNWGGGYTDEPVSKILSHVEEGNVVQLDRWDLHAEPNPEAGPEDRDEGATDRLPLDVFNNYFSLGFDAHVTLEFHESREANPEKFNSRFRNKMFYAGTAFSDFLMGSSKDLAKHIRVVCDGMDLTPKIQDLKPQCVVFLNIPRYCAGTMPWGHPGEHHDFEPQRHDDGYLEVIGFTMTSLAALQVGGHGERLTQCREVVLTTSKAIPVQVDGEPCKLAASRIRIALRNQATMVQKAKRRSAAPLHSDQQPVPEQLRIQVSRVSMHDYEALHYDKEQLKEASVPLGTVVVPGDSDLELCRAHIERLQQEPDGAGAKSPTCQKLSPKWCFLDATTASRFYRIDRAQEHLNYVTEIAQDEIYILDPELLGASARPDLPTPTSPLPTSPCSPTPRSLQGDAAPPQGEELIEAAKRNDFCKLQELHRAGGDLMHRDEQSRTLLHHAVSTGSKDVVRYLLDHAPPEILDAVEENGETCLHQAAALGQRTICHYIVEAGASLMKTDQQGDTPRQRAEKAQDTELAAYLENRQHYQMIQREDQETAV
# Sequence of Diacylglycerol kinase alpha (P23743 whole entry): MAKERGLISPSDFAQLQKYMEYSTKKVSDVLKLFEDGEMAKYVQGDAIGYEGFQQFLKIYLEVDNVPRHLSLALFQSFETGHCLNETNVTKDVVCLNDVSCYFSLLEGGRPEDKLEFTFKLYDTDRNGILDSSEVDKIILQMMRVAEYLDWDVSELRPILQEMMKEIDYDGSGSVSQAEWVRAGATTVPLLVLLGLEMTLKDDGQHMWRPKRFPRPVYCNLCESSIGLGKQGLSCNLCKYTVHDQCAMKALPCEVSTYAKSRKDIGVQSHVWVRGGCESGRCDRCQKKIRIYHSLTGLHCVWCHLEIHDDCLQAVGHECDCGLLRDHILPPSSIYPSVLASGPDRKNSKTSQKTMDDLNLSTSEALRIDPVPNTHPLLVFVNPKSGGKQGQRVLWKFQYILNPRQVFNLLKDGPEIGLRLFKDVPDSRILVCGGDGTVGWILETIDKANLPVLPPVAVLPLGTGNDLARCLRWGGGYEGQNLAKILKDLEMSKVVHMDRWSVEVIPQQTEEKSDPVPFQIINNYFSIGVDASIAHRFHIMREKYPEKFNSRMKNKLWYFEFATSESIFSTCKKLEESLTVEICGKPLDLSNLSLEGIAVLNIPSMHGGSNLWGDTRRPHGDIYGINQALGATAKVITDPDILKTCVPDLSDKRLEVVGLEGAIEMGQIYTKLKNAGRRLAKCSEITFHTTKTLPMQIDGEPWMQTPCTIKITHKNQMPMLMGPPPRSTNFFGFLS
Structure (SMILES),pIC50 [1],pIC50 [2]
"Cn1c(=O)cc(N2CCC(Oc3ccc(C(C)(C)C)cc3)CC2)c2cc(C#N)ccc21 [US11964973, Example 53]",6.11,5.70
"CCO[C@H]1CN(c2cc(=O)n(C)c3ccc(C#N)nc23)CC[C@@H]1Oc1ccc(OC(C)C)cn1 (relative stereo) [US11964973, Example 397]",,6.38

# From BindingDB's records for patent US11964973 (Bristol-Myers Squibb, 2024)
